Measured values reported in PMC12457078, “Inhibition of soluble epoxide hydrolase in endotoxin induced pig lung injury” (Frontiers in Pharmacology, 2025).
Several values for one entry are separate records, joined by “and”; a condition that tells them apart may be missing. Equal values may be shown once.

System: sEH
Experiment: oxylipin analysis, epoxide/diol ratios (target engagement)
Type: in vivo, pig
Design: 14,15-DiHETE: unit not given beside the values; 12,13-DiHOME / 9,10-DiHODE / 11,12-DiHETrE / 14,15-DiHETrE / 10,11-DiHDPE / 19,20-DiHDPE / 13-HODE / 5-HETE / 11-HETE / 12-HETE / 5-HEPE / 9(10)-EpOME / 12(13)-EpOME / EKODE / 11(12)-EpETE: unit not given here
Settings: for 9,10,13-TriHOME sample concentration / 9,12,13-TriHOME sample concentration: bad chromatography; for 14,15-DiHETE: high blanks
Method: All animals were monitored with pulse oximetry, heart rate, ECG, systemic arterial blood pressure (ABP), pulmonary arterial pressure (PAP), central venous pressure (CVP) temperature, tidal volumes, respiratory rate and end tidal carbon dioxide. At baseline, and at 3 h, 6 h and at the end of the experiment, pulmonary capillary wedge pressure (PCWP) was measured together with arterial and venous blood gas analyses, as well as cardiac output calculations. Routine chemistry, including creatinine, bilirubin, glucose, electrolytes were collected at baseline and at the end of the experiment (Vetscan VS2®, Abaxis, Griesheim, Germany). Blood samples for measurement of AEPU plasma concentrations, as well as oxylipins (i.e., EpETrEs and their DiHETrE corresponding diols as well as related compounds with other polyunsaturated fatty acid precursors), were collected at baseline, 6 h and at the end of the experiment.
This meant nine subjects in each group to achieve 90% power of detecting a difference of this size given α = 0.05. Anticipating that not all experiments would reach completion, we used a sample size of 22. The results were analyzed using SPSS Statistics, version 24 (IBM Corp., Armonk, N.Y., United States). Normality was examined with the Shapiro-Wilk test, together with examination of histograms of data. Continuous variables were compared using Student’s t-test or Mann Whitney U test, as appropriate. Categorical variables were compared using Fischer’s exact test. Statistical significance was set at α < 0.05. Oxylipins with at least 80% of observations above limit of detection at both timepoints were included in pairwise comparisons of ratios and fold-change evaluations where observations below limit of detection (LOD) were substituted with 0.5 x LOD.

[1] = Time (h) 0, single pigs of sEH-i group
[2] = Time (h) 6, single pigs of sEH-i group
[3] = animal 20, time 6, sample Schwein36
[4] = animal 22, time 0, sample Schwein37
[5] = animal 22, time 6, sample Schwein38

SMILES: CCOCCOCCOCCCCCNC(=O)NC12CC3CC(CC(C3)C1)C2 [sEH-i]
- 5(6)-EpETrE sample concentration [1]: <LOD
- 5,6-DiHETrE sample concentration [1]: <LOD
- 7(8)-EpDPE sample concentration [1]: <LOD
- 7,8-DiHDPE sample concentration [1]: <LOD
- 8(9)-EpETE sample concentration [1]: <LOD
- 8(9)-EpETrE sample concentration [1]: <LOD
- 8,9-DiHETE sample concentration [1]: <LOD
- 9-HETE sample concentration [1]: <LOD
- 9-oxo-ODE sample concentration [1]: <LOD
- 10(11)-EpDPE sample concentration [1]: <LOD
- 11(12)-EpETE sample concentration [1]: 0.1209 pmol/mL and 0.141 pmol/mL and 0.08872 pmol/mL
- 13(14)-EpDPE sample concentration [1]: <LOD
- 14(15)-EpETE sample concentration [1]: <LOD
- 15-HEPE sample concentration [1]: <LOD
- 16(17)-EpDPE sample concentration [1]: <LOD
- 17(18)-EpETE sample concentration [1]: <LOD
- 17-HDoHE sample concentration [1]: <LOD
- 19(20)-EpDPE sample concentration [1]: <LOD
- LTB4 sample concentration [1]: <LOD
- PGD2 sample concentration [1]: <LOD
- PGE2 sample concentration [1]: <LOD
- PGF2a sample concentration [1]: <LOD
- Resolvin D1 sample concentration [1]: <LOD
- Resolvin D2 sample concentration [1]: <LOD
- TXB2 sample concentration [1]: 0.17 pmol/mL and 0.31 pmol/mL
- 9,10,13-TriHOME sample concentration [1]: 4.78 pmol/mL and 2.75 pmol/mL and 3.27 pmol/mL
- 9,12,13-TriHOME sample concentration [1]: <LOD
- 5(6)-EpETrE sample concentration [2]: <LOD
- 7(8)-EpDPE sample concentration [2]: <LOD
- 7,8-DiHDPE sample concentration [2]: <LOD
- 8(9)-EpETE sample concentration [2]: <LOD
- 8(9)-EpETrE sample concentration [2]: <LOD
- 9-HETE sample concentration [2]: <LOD
- 9-oxo-ODE sample concentration [2]: <LOD
- 10(11)-EpDPE sample concentration [2]: <LOD
- 11(12)-EpETE sample concentration [2]: 0.1453 pmol/mL and 0.09993 pmol/mL and 0.1012 pmol/mL
- 13(14)-EpDPE sample concentration [2]: <LOD
- 14(15)-EpETE sample concentration [2]: <LOD
- 15-HEPE sample concentration [2]: <LOD
- 16(17)-EpDPE sample concentration [2]: <LOD
- 17(18)-EpETE sample concentration [2]: <LOD
- 19(20)-EpDPE sample concentration [2]: <LOD
- LTB4 sample concentration [2]: <LOD
- PGD2 sample concentration [2]: <LOD
- PGE2 sample concentration [2]: <LOD
- Resolvin D1 sample concentration [2]: <LOD
- Resolvin D2 sample concentration [2]: <LOD
- TXB2 sample concentration [2]: 1.20 pmol/mL and 2.15 pmol/mL and 2.09 pmol/mL
- 9,10,13-TriHOME sample concentration [2]: 4.27 pmol/mL and 3.59 pmol/mL and 2.73 pmol/mL
- 9,12,13-TriHOME sample concentration [2]: <LOD
- 5(6)-EpETrE [3]: <LOD
- 5,6-DiHETrE [3]: <LOD
- 5-HEPE [3]: <LOD
- 5-HETE [3]: <LOD
- 5-oxo-ETE [3]: 0.05
- 7(8)-EpDPE [3]: <LOD
- 7,8-DiHDPE [3]: <LOD
- 8(9)-EpETE [3]: <LOD
- 8(9)-EpETrE [3]: <LOD
- 8,9-DiHETE [3]: <LOD
- 8,9-DiHETrE [3]: 0.0443
- 8-HETE [3]: 0.0319
- 9(10)-EpODE [3]: <LOD
- 9(10)-EpOME [3]: 0.34
- 9,10,13-TriHOME [3]: 6.77
- 9,10-DiHODE [3]: 0.0155
- 9,10-DiHOME [3]: 0.21
- 9,12,13-TriHOME [3]: <LOD
- 9-HETE [3]: <LOD
- 9-HODE [3]: 1.17
- 9-HOTrE [3]: 0.2865
- 9-oxo-ODE [3]: <LOD
- 10(11)-EpDPE [3]: <LOD
- 10,11-DiHDPE [3]: <LOD
- 11(12)-EpETE [3]: 0.0834
- 11(12)-EpETrE [3]: 0.0219
- 11,12-DiHETE [3]: 0.0228
- 11,12-DiHETrE [3]: 0.45
- 11-HETE [3]: 0.12
- 12(13)-EpODE [3]: <LOD
- 12(13)-EpOME [3]: 0.3027
- 12,13-DiHODE [3]: <LOD
- 12,13-DiHOME [3]: 0.26
- 12-HEPE [3]: 0.0122
- 12-HETE [3]: 0.06381
- 12-oxo-ETE [3]: <LOD
- 13(14)-EpDPE [3]: <LOD
- 13,14-DiHDPE [3]: 0.04
- 13-HODE [3]: 4.33
- 13-HOTrE [3]: <LOD
- 13-oxo-ODE [3]: <LOD
- 14(15)-EpETE [3]: <LOD
- 14(15)-EpETrE [3]: <LOD
- 14,15-DiHETrE [3]: 0.58
- 15(16)-EpODE [3]: 0.25
- 15,16-DiHODE [3]: 2.37
- 15-HEPE [3]: <LOD
- 15-HETE [3]: 0.23
- 15-HETrE [3]: 0.10
- 15-oxo-ETE [3]: 0.0224
- 16(17)-EpDPE [3]: <LOD
- 16,17-DiHDPE [3]: 0.0373
- 17(18)-EpETE [3]: <LOD
- 17,18-DiHETE [3]: 0.77
- 17-HDoHE [3]: <LOD
- 19(20)-EpDPE [3]: <LOD
- 19,20-DiHDPE [3]: 0.44
- 20-HETE [3]: 0.0531
- EKODE [3]: 0.20
- LTB4 [3]: 0.26
- PGD2 [3]: <LOD
- PGE2 [3]: <LOD
- PGF2a [3]: 0.69
- Resolvin D1 [3]: <LOD
- Resolvin D2 [3]: <LOD
- TXB2 [3]: 2.57
- 14,15-DiHETE [3]: 0.2599
- 5(6)-EpETrE [4]: <LOD
- 5,6-DiHETrE [4]: <LOD
- 5-HEPE [4]: 0.21
- 5-HETE [4]: 0.81
- 5-oxo-ETE [4]: 0.30
- 7(8)-EpDPE [4]: <LOD
- 7,8-DiHDPE [4]: <LOD
- 8(9)-EpETE [4]: <LOD
- 8(9)-EpETrE [4]: <LOD
- 8,9-DiHETE [4]: 0.0568
- 8,9-DiHETrE [4]: 0.11
- 8-HETE [4]: 0.16
- 9(10)-EpODE [4]: 0.39
- 9(10)-EpOME [4]: 1.58
- 9,10,13-TriHOME [4]: 8.76
- 9,10-DiHODE [4]: 0.80
- 9,10-DiHOME [4]: 5.53
- 9,12,13-TriHOME [4]: 1.91
- 9-HETE [4]: <LOD
- 9-HODE [4]: 22.28
- 9-HOTrE [4]: 2.15
- 9-oxo-ODE [4]: <LOD
- 10(11)-EpDPE [4]: <LOD
- 10,11-DiHDPE [4]: 0.12
- 11(12)-EpETE [4]: 0.09412
- 11(12)-EpETrE [4]: 0.09
- 11,12-DiHETE [4]: 0.09
- 11,12-DiHETrE [4]: 1.52
- 11-HETE [4]: 0.33
- 12(13)-EpODE [4]: 0.93
- 12(13)-EpOME [4]: 3.18
- 12,13-DiHODE [4]: 1.66
- 12,13-DiHOME [4]: 19.80
- 12-HEPE [4]: 0.0755
- 12-HETE [4]: 0.69
- 12-oxo-ETE [4]: 4.85
- 13(14)-EpDPE [4]: <LOD
- 13,14-DiHDPE [4]: 0.22
- 13-HODE [4]: 80.31
- 13-HOTrE [4]: 4.84
- 13-oxo-ODE [4]: 6.02
- 14(15)-EpETE [4]: <LOD
- 14(15)-EpETrE [4]: 0.11
- 14,15-DiHETrE [4]: 3.44
- 15(16)-EpODE [4]: 36.18
- 15,16-DiHODE [4]: 74.86
- 15-HEPE [4]: <LOD
- 15-HETE [4]: 0.58
- 15-HETrE [4]: 0.39
- 15-oxo-ETE [4]: 0.15
- 16(17)-EpDPE [4]: <LOD
- 16,17-DiHDPE [4]: 0.63
- 17(18)-EpETE [4]: <LOD
- 17,18-DiHETE [4]: 3.51
- 17-HDoHE [4]: 0.47
- 19(20)-EpDPE [4]: 0.29
- 19,20-DiHDPE [4]: 4.63
- 20-HETE [4]: 0.35
- EKODE [4]: 0.67
- LTB4 [4]: <LOD
- PGD2 [4]: 0.04
- PGE2 [4]: 0.0328
- PGF2a [4]: 0.19
- Resolvin D1 [4]: <LOD
- Resolvin D2 [4]: <LOD
- TXB2 [4]: 0.22
- 14,15-DiHETE [4]: 0.2458
- 5(6)-EpETrE [5]: <LOD
- 5,6-DiHETrE [5]: <LOD
- 5-HEPE [5]: 0.03
- 5-HETE [5]: 0.2075
- 5-oxo-ETE [5]: 0.12
- 7(8)-EpDPE [5]: <LOD
- 7,8-DiHDPE [5]: <LOD
- 8(9)-EpETE [5]: <LOD
